These results are taken from patent US8703427B2, “Biological materials and uses thereof” (PhotoBiotics Limited, priority 2005, dated 2014).

Data set [1] has as its system Basal cell cancer of skin. The conditions noted are these: clinical PDT, topical; cited from earlier work.
For data set [2], the system named is Barrett's oesophagus cancer. The note with it: clinical PDT, systemic; cited from earlier work.
For data set [3] the following is noted: in vivo; cited from earlier work.
Data set [4] concerns the target Her-2 receptor (human) (UniProt P04626). As to the kind of experiment: cell-based or functional assay.
Data set [5] relates to Chest wall recurrence in breast cancer. The conditions noted are these: clinical PDT; cited from earlier work.
Data set [6] concerns Oral cancer. The note with it: clinical PDT, over 5-53 months; cited from earlier work.
The subject of data set [7] is Bladder cancer. The note with it: clinical PDT; cited from earlier work.
A short description of data set [8]: Fluorescence of conjugates in PBS (excitation 410 nm, emission 680 nm). The class given is physicochemical. The note with it: measured in PBS buffer. How it is done:
• 1. Serial dilutions (halving concentrations) of the conjugates were made in PBS and the fluorescence was measured at an excitation wavelength of 410 nm and an emission wavelength of 680 nm. • 2. These were compared to free PPa in PBS. Examples are shown for c6.5 scFv-PPa (FIG. 11) and MFE scFv-PPA (+/− benzoic acid) (FIG. 12)

Data set [9] has as its system KB cells. As to the kind of experiment: Immunofluorescent microscopy, HER-2-negative cells. The class given is cell-based, human. The note with it: 1 hour incubation; images and emission spectra. As to the method:
FIG. 24—Immunofluorescent microscopy of C6.5-PPa photo-immunoconjugate Antigen negative KB cells (A-D) or antigen positive SKOV3 cells (E-J) were incubated with free PPa or C6.5-PPa photo-immunoconjugate for 1 hour. Images and emission spectra were recorded.
• 1. Round coverslips were washed in ethanol and rinsed in PBS. Coverslips were then placed in 12-well tissue culture plates. • 2. SKOV3 cells were trypsinised and washed with PBS. The cell pellet was resuspended in McCoy's media and cells were seeded onto the coverslips at 2×10^5 cells/ml. The cells were incubated overnight at 37° C. and 5% CO2. • 3. The coverslips with the adherent cells were rinsed carefully in PBS and either C6-PPa or PBS was added to the wells. The cells were incubated at 37° C. and 5% CO2 for 30 minutes after which time they were washed carefully with PBS. • 4. The cells were fixed onto the coverslips by incubating in 2 ml 4% paraformaldehyde for 60 minutes at room temperature. After this time, the coverslips were washed with PBS and inverted cell-side down onto glass slides. The edges of the coverslips were then sealed using nail varnish. • 5. Fluorescence imaging was then performed using an Ar+ laser (418 nm) as excitation source, using a Leica laser scanning confocal microscope, images are shown in FIGS. 20 and 24, and the emission spectrum is shown in FIGS. 21 and 24.

For data set [10], the system named is vision loss associated with AMD. The conditions noted are these: PDT compared to the placebo control; cited from earlier work.
In data set [11] the test system is KB cells. As to the kind of experiment: In vitro PDT cell killing (Cytotox-96), antigen-negative cells. The class given is cell-based, human. The conditions noted are these: 30 min incubation, laser light 2 min, 1.4 J/cm^2, cell kill assay after 48 hours. As to the method:
(§1) • 1. […] The flask was incubated at 37° C., 5% CO2 for 15 mins or until the cells had detached from the flask. The cells were then placed in a 50 ml Falcon tube and the trypsin deactivated by adding 15 ml DMEM or McCoy's medium. • 3. Cells (20 μl) were taken out of the tube and placed on a haemocytometer for counting. The remaining cells were harvested at 1800 g for 10 min at room temperature and the pellet gently resuspended in 1 ml of DMEM or McCoy's medium. The cells were thoroughly resuspended and a further 19 ml of DMEM or McCoy's medium added. The cells were diluted in DMEM or McCoy's medium accordingly to give 2×10^6 cells/ml. Cells (50 μl) were then added to each well of a 96 well plate and incubated overnight at 37° C. and 5% CO2. • 4. […] Cells were washed once with PBS and 50 μl of the conjugate added to wells in quadruplicate. Control wells were also included (wells with conjugate added but not exposed to light, and wells with neither conjugate added nor exposed to light). […] Cells were incubated in the conjugate or free PS (concentration varies) for 30 min at 37° C., 5% CO2 and then washed 3 times with PBS. […] The PBS was removed from each well and 100 μl of DMEM or McCoy's medium added. The plates were loosely wrapped in foil, but covered adequately so that no ambient light could enter.

For data set [12], the system named is SKOV3 cells. As to the kind of experiment: In vitro PDT cell killing (Cytotox-96), antigen-positive cells. The format is cell-based, human. The conditions noted are these: 30 min incubation, laser light 2 min, 1.4 J/cm^2, cell kill assay after 48 hours. How it is done:
as §1

Data set [13] has as its system Barrett's mucosal cancer. The conditions noted are these: clinical PDT; cited from earlier work.

Turning to `NCC(=O)CCC(=O)O` [ALA, 5-aminolaevulinic acid], in data set [1], the complete response was 90% complete response. In addition, in data set [2], the High-grade dysplasia result is reported as “erradicated in all patients”.

As for `Oc1cccc(-c2c3nc(c(-c4cccc(O)c4)c4ccc([nH]4)c(-c4cccc(O)c4)c4nc(c(-c5cccc(O)c5)c5ccc2[nH]5)CC4)C=C3)c1` [Foscan™, meta-tetrahydroxyphenyl chlorin], the skin photosensitivity result in data set [3] is reported as “about 2 weeks”.

Turning to “C6.5 scFv-Verteporfin (Visudyne™) conjugate”, the IC50 of in vitro PDT cell killing on antigen-positive SKOV3 cells in data set [4] came out at 2.2 µM.

Consider Dihematoporphyrin ether, for which the complete response was 20% complete response, in data set [5] and 87% complete response in data set [6]. Moreover, the partial response in [5] was 45% partial response.

Turning to Hematoporphyrin derivative, in data set [7], the “alive after 5 years” value is 30% alive after 5 years and the complete response is recorded as 74% complete response,.

As for Pyropheophorbide a [PPa], the “fluorescence / photophysical properties” value in data set [8] was “does not fluoresce significantly”. Further, the “uptake of PPa, KB cells vs SKOV3 cells” value in data set [9] was “over 2 fold”.

The IC50 is the point on the concentration scale where inhibition reaches its midpoint. On to “benzoporphyrin derivative mono acid [Verteporfin (Visudyne™)]”, for which the “recovering vision loss associated with AMD” value in data set [10] is given as “more effective”. The IC50 was 10 µM in [11] and 15.3 µM in data set [12].

Regarding porfimer sodium, in [13], the “conversion to normal epithelium” value is 75% conversion to normal and the tumours result is “eliminated”.
